{
  "source": "ChEMBL document CHEMBL3045560",
  "about": "“Insecticide interactions with -aminobutyric acid and nicotinic receptors: predictive aspects of structural models” (J Pestic Sci, 2008)",
  "key": {"[1]": {"assay": "Selectivity ratio of IC50 for recombinant human GABA receptor to IC50 for housefly GABA receptor"}, "[2]": {"assay": "Inhibition of recombinant Homo sapiens (human) GABA receptor"}, "[3]": {"target": "T1, Gamma-aminobutyric acid receptor subunit beta-3 (Homo sapiens, UniProt P28472)", "T1 sequence (P28472 whole entry)": "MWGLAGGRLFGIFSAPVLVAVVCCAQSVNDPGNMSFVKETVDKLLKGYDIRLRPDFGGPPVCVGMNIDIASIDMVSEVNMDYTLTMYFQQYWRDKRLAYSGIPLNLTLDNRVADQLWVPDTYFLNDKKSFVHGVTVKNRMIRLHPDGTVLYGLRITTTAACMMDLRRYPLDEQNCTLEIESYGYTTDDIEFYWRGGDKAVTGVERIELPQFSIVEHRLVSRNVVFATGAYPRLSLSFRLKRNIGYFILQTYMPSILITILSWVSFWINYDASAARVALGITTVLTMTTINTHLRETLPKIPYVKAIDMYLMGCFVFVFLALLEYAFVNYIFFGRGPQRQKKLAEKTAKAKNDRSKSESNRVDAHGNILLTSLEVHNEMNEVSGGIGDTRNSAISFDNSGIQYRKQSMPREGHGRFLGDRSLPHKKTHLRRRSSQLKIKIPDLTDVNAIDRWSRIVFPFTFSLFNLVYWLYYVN", "assay": "Displacement of [3H]EBOB from recombinant Homo sapiens (human) GABA beta3 receptor"}, "Musca domestica": {"system": "Musca domestica", "assay": "Insecticidal activity against topically-treated Musca domestica (house fly)", "type": "ADME, organism-based", "settings": "topical"}, "[4]": {"target": "T2, GABA-A receptor; alpha-1/beta-3/gamma-2 (Homo sapiens, UniProt P14867+P18507+P28472)", "T2 sequence (P14867 whole entry)": "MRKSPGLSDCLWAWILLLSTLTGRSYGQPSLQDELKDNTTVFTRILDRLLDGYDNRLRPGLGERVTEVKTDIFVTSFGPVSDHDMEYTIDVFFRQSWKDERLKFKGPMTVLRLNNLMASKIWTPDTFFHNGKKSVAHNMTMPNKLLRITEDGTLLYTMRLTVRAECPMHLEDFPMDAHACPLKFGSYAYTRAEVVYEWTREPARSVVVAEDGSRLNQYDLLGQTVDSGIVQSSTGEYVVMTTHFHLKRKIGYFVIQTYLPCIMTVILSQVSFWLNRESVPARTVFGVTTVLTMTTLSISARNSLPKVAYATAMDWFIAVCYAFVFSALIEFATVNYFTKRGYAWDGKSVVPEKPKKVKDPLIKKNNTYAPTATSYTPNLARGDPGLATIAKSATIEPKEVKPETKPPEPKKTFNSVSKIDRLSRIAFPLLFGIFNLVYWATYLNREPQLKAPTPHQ", "T2 sequence (P18507 whole entry)": "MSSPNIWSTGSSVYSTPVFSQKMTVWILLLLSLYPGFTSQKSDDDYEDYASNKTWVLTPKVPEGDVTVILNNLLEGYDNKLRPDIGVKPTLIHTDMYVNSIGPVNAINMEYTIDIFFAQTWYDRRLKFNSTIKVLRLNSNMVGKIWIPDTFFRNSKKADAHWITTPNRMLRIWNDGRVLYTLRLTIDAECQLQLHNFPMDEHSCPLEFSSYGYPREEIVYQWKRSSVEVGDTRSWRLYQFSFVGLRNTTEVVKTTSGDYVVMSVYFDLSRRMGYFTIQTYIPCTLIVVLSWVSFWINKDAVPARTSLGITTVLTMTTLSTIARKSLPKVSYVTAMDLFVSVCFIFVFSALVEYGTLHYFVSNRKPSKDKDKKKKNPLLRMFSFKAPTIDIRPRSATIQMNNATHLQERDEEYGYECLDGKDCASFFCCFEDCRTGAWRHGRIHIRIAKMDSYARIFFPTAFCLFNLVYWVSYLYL", "T2 sequence (P28472 whole entry)": "T1 sequence (P28472 whole entry)", "assay": "Displacement of [3H]EBOB from recombinant Homo sapiens (human) GABA alpha1beta3gamma2 receptor", "type": "protein-complex assay"}, "[5]": {"target": "T3, GABA A receptor alpha-1/beta-1/gamma-2 (Homo sapiens, UniProt P14867+P18505+P18507)", "T3 sequence (P14867 whole entry)": "T2 sequence (P14867 whole entry)", "T3 sequence (P18507 whole entry)": "T2 sequence (P18507 whole entry)", "T3 sequence (P18505 whole entry)": "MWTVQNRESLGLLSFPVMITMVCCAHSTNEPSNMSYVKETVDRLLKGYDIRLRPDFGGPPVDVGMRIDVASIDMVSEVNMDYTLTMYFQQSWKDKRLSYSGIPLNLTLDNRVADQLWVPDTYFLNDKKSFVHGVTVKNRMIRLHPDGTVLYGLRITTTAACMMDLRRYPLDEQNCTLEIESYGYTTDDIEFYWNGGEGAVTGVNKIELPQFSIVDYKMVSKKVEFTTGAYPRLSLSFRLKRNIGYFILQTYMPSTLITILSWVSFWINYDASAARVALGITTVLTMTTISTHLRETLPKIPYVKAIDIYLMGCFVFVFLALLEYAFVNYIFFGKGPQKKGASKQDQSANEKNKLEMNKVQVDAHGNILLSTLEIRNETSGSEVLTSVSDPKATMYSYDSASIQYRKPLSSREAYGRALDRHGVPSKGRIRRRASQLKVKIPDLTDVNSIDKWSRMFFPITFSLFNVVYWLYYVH", "assay": "Displacement of [3H]EBOB from recombinant Homo sapiens (human) GABA alpha1beta1gamma2 receptor", "type": "protein-complex assay"}, "[6]": {"target": "T4, Gamma-aminobutyric acid receptor subunit alpha-1/ beta-1 (Homo sapiens, UniProt P14867+P18505)", "T4 sequence (P14867 whole entry)": "T2 sequence (P14867 whole entry)", "T4 sequence (P18505 whole entry)": "T3 sequence (P18505 whole entry)", "assay": "Displacement of [3H]EBOB from recombinant Homo sapiens (human) GABA alpha1beta1 receptor", "type": "protein-complex assay"}, "[7]": {"target": "Gamma-aminobutyric acid receptor subunit alpha-6/beta-3 (Homo sapiens, UniProt P28472+Q16445)", "sequence (Q16445 whole entry, one chain of several)": "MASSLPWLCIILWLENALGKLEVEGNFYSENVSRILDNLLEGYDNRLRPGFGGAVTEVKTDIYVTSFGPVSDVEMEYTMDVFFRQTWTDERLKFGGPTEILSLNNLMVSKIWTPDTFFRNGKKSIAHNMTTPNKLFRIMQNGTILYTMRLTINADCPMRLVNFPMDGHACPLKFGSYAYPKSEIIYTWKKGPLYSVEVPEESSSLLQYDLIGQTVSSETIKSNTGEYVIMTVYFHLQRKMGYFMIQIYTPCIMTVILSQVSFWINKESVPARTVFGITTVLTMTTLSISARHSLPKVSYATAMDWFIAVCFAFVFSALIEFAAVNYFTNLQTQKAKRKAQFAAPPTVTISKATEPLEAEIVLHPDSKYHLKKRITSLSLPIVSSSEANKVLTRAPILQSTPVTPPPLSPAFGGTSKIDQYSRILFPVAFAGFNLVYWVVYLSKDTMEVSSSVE", "assay": "Displacement of [3H]EBOB from recombinant Homo sapiens (human) GABA alpha6beta3 receptor", "type": "protein-complex assay"}, "[8]": {"target": "T5, GABA-A receptor alpha-1/beta-3 (Homo sapiens, UniProt P14867+P28472)", "T5 sequence (P14867 whole entry)": "T2 sequence (P14867 whole entry)", "T5 sequence (P28472 whole entry)": "T1 sequence (P28472 whole entry)", "assay": "Displacement of [3H]EBOB from recombinant Homo sapiens (human) GABA alpha1beta3 receptor"}, "[9]": {"assay": "Toxicity in ip dosed Mus musculus (mouse)", "type": "organism-based", "settings": "in vivo"}, "[10]": {"target": "Gamma-aminobutyric acid receptor subunit rho-1 (Homo sapiens, UniProt P24046)", "sequence (P24046 whole entry)": "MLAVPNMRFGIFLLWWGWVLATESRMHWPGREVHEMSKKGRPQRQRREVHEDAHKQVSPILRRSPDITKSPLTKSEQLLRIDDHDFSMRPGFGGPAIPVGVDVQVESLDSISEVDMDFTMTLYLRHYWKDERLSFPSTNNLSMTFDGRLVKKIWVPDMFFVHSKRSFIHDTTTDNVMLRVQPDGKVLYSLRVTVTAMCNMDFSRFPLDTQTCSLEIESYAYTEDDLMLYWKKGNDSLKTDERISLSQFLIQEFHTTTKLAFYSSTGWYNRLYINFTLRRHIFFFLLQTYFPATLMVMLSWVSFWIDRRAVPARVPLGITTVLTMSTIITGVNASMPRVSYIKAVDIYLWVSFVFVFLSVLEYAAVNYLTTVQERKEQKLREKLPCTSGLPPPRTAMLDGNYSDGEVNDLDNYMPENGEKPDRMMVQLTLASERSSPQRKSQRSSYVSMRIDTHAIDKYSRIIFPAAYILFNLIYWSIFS", "assay": "Displacement of [3H]EBOB from recombinant Homo sapiens (human) GABA rho1 receptor"}, "[11]": {"target": "GABA-A receptor; alpha-6/beta-3/gamma-2 (Homo sapiens, UniProt P18507+P28472+Q16445)", "sequence (Q16445 whole entry, one chain of several)": "as the sequence (Q16445 whole entry, one chain of several) above", "assay": "Displacement of [3H]EBOB from recombinant Homo sapiens (human) GABA alpha6beta3gamma2 receptor", "type": "protein-complex assay"}, "GABA receptor subunit": {"target": "T6, GABA receptor subunit (Musca domestica, UniProt Q75NA5)", "T6 sequence (Q75NA5 whole entry)": "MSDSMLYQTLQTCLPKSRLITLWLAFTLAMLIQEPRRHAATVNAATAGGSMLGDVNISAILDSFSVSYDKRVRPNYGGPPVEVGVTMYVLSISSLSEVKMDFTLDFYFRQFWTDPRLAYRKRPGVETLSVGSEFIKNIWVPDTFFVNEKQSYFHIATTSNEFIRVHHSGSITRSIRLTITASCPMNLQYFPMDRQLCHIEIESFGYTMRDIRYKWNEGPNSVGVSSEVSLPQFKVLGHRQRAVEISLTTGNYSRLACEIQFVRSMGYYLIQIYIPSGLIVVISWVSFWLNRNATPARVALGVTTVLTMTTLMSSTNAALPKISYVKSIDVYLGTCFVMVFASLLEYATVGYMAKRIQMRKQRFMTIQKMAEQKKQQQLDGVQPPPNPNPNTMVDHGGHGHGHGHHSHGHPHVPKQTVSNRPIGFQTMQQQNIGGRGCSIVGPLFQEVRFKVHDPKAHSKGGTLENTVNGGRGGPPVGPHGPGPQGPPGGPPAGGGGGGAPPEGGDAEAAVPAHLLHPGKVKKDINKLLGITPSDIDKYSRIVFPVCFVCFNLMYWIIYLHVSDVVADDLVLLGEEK", "assay": "Inhibition of Musca domestica (house fly) GABA receptor"}},
  "data": [
    {"compound": "C#Cc1ccc(C23OCC(CCC)(CO2)CO3)cc1", "values": [
      {"measurement": "Ratio IC50", "setting": "[1]", "value": 5}
    ]},
    {"compound": "O=S1OC[C@@H]2[C@H](CO1)[C@@]1(Cl)C(Cl)=C(Cl)[C@]2(Cl)C1(Cl)Cl", "note": "(stereo partly drawn) [ALPHA-ENDOSULFAN]", "values": [
      {"measurement": "IC50", "setting": "[2]", "value": 7.3, "unit": "nM"},
      {"measurement": "IC50", "setting": "[3]", "value": 0.47, "unit": "nM"},
      {"measurement": "Ratio IC50", "setting": "[1]", "value": 0.73},
      {"measurement": "LD50", "setting": "Musca domestica", "value": 5.5, "unit": "mg/kg"},
      {"measurement": "IC50", "setting": "[4]", "value": 16, "unit": "nM"},
      {"measurement": "IC50", "setting": "[5]", "value": 40, "unit": "nM"},
      {"measurement": "IC50", "setting": "[6]", "value": 117, "unit": "nM"},
      {"measurement": "IC50", "setting": "[7]", "value": 4, "unit": "nM"},
      {"measurement": "IC50", "setting": "[8]", "value": 8.3, "unit": "nM"},
      {"measurement": "LD50", "setting": "[9]", "value": 10, "unit": "mg/kg"},
      {"measurement": "IC50", "setting": "[10]", "value": 800, "unit": "nM"},
      {"measurement": "IC50", "setting": "[11]", "value": 4.6, "unit": "nM"},
      {"measurement": "IC50", "setting": "GABA receptor subunit", "value": 10, "unit": "nM"}
    ]},
    {"compound": "N#Cc1nn(-c2c(Cl)cc(C(F)(F)F)cc2Cl)c(N)c1[S+]([O-])C(F)(F)F", "note": "(stereo not given) [FIPRONIL]", "values": [
      {"measurement": "IC50", "setting": "[2]", "value": 2500, "unit": "nM"},
      {"measurement": "IC50", "setting": "[3]", "value": 2.4, "unit": "nM"},
      {"measurement": "Ratio IC50", "setting": "[1]", "value": 1090},
      {"measurement": "LD50", "setting": "Musca domestica", "value": 0.25, "unit": "mg/kg"},
      {"measurement": "IC50", "setting": "[4]", "value": 33, "unit": "nM"},
      {"measurement": "IC50", "setting": "[5]", "value": 2800, "unit": "nM"},
      {"measurement": "IC50", "setting": "[6]", "value": 7700, "unit": "nM"},
      {"measurement": "IC50", "setting": "[7]", "value": 3.1, "unit": "nM"},
      {"measurement": "IC50", "setting": "[8]", "value": 28, "unit": "nM"},
      {"measurement": "LD50", "setting": "[9]", "value": 32, "unit": "mg/kg"},
      {"measurement": "IC50", "setting": "[10]", "value": "> 10000", "unit": "nM"},
      {"measurement": "IC50", "setting": "[11]", "value": 17, "unit": "nM"},
      {"measurement": "IC50", "setting": "GABA receptor subunit", "value": 2.3, "unit": "nM"}
    ]},
    {"compound": "Cl[C@H]1[C@H](Cl)[C@@H](Cl)[C@@H](Cl)[C@H](Cl)[C@H]1Cl", "note": "[LINDANE]", "values": [
      {"measurement": "IC50", "setting": "[2]", "value": 306, "unit": "nM"},
      {"measurement": "IC50", "setting": "[3]", "value": 0.9, "unit": "nM"},
      {"measurement": "Ratio IC50", "setting": "[1]", "value": 28},
      {"measurement": "LD50", "setting": "Musca domestica", "value": 5.5, "unit": "mg/kg"},
      {"measurement": "IC50", "setting": "[4]", "value": 21, "unit": "nM"},
      {"measurement": "IC50", "setting": "[5]", "value": 67, "unit": "nM"},
      {"measurement": "IC50", "setting": "[6]", "value": 112, "unit": "nM"},
      {"measurement": "IC50", "setting": "[7]", "value": 1.3, "unit": "nM"},
      {"measurement": "IC50", "setting": "[8]", "value": 12, "unit": "nM"},
      {"measurement": "LD50", "setting": "[9]", "value": 40, "unit": "mg/kg"},
      {"measurement": "IC50", "setting": "[10]", "value": 91, "unit": "nM"},
      {"measurement": "IC50", "setting": "[11]", "value": 4.9, "unit": "nM"},
      {"measurement": "IC50", "setting": "GABA receptor subunit", "value": 11, "unit": "nM"}
    ]}
  ]
}
